Assay results reported in PubChem BioAssay (NCI).
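Each compound was tested at five concentrations against cells in 96-well plates for 48 hours. GI50 marks 50% less growth. TGI marks complete inhibition of growth.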

What was measured:
Assay in all cases: NCI anticancer screen, dose series, 48 h
[1] = test system: SR leukemia
[2] = test system: NCI-H23 lung
[3] = test system: HOP-62 NSCLC
[4] = test system: SK-MEL-2 melanoma
[5] = test system: SNB-75 CNS
[6] = test system: U251 CNS
[7] = test system: HCC-2998 colon
[8] = test system: CCRF-CEM leukemia
[9] = test system: HOP-92 NSCLC
[10] = test system: K-562 leukemia

Row | Structure (SMILES) | GI50 [1] [µM] | TGI [1] [µM] | GI50 [2] [µM] | TGI [2] [µM] | GI50 [3] [µM] | TGI [3] [µM] | GI50 [4] [µM] | TGI [4] [µM] | GI50 [5] [µM] | TGI [5] [µM] | GI50 [6] [µM] | TGI [6] [µM] | GI50 [7] [µM] | TGI [7] [µM] | GI50 [8] [µM] | TGI [8] [µM] | GI50 [9] [µM] | TGI [9] [µM] | GI50 [10] [µM] | TGI [10] [µM]
1 | CC1=C([Se]CC(OC(=O)CC[Se]c2ccccc2)C(=O)NCCCCCC(=O)OCc2ccccc2)C(=O)c2ccccc2C1=O (centres undefined) | 3.38 | 17.2 | 2 | 5.53 | 1.87 | 4.32 | 3.32 | 9.96 | 1.71 | 6.23 | 1.89 | 4.07 | 2.9 | 7.46 | 3.61 | > 100 | 2.46 | 5.91 | 3.31 | 23.7
2 | CC(C)N(C(=O)C12C3C4C5(C#N)C3C1(I)C5C42I)C(C)C (centres undefined) | – | > 100 | – | > 100 | – | > 100 | – | > 100 | – | > 100 | – | > 100 | – | > 100 | – | > 61.8 | – | > 100 | – | > 93.3
3 | COc1cc2oc(=O)ccc2cc1C1OC(=O)C2OC21C (centres undefined) | – | > 100 | – | > 100 | – | > 100 | – | > 100 | – | > 100 | – | > 100 | – | > 100 | – | > 100 | – | > 100 | – | > 100
4 | OCc1cn(Cc2cccc(Cl)c2)c2ccccc12 | 12.3 | 44.1 | 13.3 | 43.5 | 9.74 | 47.3 | 3.16 | 14.8 | 7.7 | 29 | 0.865 | 22.6 | 12 | 28.3 | 11 | > 69.8 | 1.55 | 17.4 | 1.99 | 31.9
5 | CC(C)(C)N1CCC1C(N)=O (centres undefined) | > 100 | > 100 | > 100 | > 100 | > 100 | > 100 | > 100 | > 100 | > 100 | > 100 | > 100 | > 100 | > 100 | > 100 | > 100 | > 100 | > 100 | > 100 | > 100 | > 100
6 | CC(=O)OC[C@H]1O[C@@H](n2ccc(=O)[nH]c2=O)[C@H](OC(C)=O)[C@@H]1OC(C)=O | > 100 | > 100 | > 100 | > 100 | > 100 | > 100 | > 100 | > 100 | > 100 | > 100 | > 100 | > 100 | > 100 | > 100 | > 100 | > 100 | > 100 | > 100 | > 100 | > 100
7 | CC[C@]1(O)CC2CN(CCc3c([nH]c4ccccc34)[C@@](C(=O)OC)(c3cc4c(cc3OC)N(C)[C@H]3[C@@](O)(C(=O)OC)[C@H](OC(C)=O)[C@]5(CC)C=CCN6CC[C@]43[C@@H]65)C2)C1 (some centres undefined) | < 0.005 | – | < 0.005 | 26.7 | < 0.005 | 9.89 | < 0.005 | 6.95 | < 0.005 | 5.05 | < 0.005 | 6.5 | < 0.005 | 0.0195 | < 0.005 | 18.5 | < 0.005 | 0.119 | < 0.005 | 2.26
8 | CC1=C(/C=C/C(C)=C\C=C\C(C)=C\C(=O)Nc2ccc3c(c2)OCO3)C(C)(C)CCC1 | 11.3 | 47.7 | 17.7 | > 100 | > 100 | > 100 | 61.6 | > 100 | 7.41 | > 100 | 77.5 | > 100 | 3.97 | 36.5 | 22.6 | > 100 | 35.8 | > 100 | 7.56 | > 100
9 | COc1ccc(/C=C/C(=O)c2cc3c(N)c(C(=O)Nc4ccccc4Cl)sc3nc2C)cc1 | 3.77 | > 50 | 4.58 | > 50 | 1.62 | 8.02 | 1.31 | 16.7 | 1.12 | 4.32 | 3.36 | 29.6 | 8 | > 50 | 10.4 | > 50 | 0.689 | 4.18 | 2.49 | > 50
10 | CN(C)CCCn1c2c(c3cnccc3c1=O)C(=O)c1ccccc1-2 | 0.095 | 0.793 | 0.55 | 3.73 | 0.402 | 7.75 | 0.829 | 3.6 | 0.82 | 4.03 | 0.425 | 11.4 | 0.777 | 2.6 | 0.318 | 2.87 | 0.203 | 2.68 | 0.474 | 12.5
